This is an account of results in ChEMBL document CHEMBL1201862, “PubChem BioAssay data set” (2004).

Molecules are shown by their SMILES.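 1) Cells in 96-well plates. 2) Compound, 48 h, 5 concentrations. 3) Linear interpolation between surrounding doses. 4) Unreached endpoint = highest concentration. GI50 = concentration required for 50% inhibition of growth.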 Activity calls are given as the source filed them. Cut-off read from the data, not from the text of the source: active = GI50 up to about 1.1 µM and inactive = higher. A value given as a limit tells only on which side of the number the result lay.

Among the test systems are HCC 2998; SK-MEL-2; COLO 205; MDA-N; M14; A498; NCI-H23; MOLT-4; NCI/ADR-RES; UACC-257; PC-3; Malme-3M; UACC-62; 786-0; HOP-62; HCT-15; SF-539; TK-10; SF-268; BT-549.
Assay in all cases: NCI anticancer screen, dose series, 48 h

As to `O=C(NC/C(Cl)=C/Cl)Nc1c2ccccc2nc2ccccc12`, the GI50 was 86.3 µM (inactive) with HCC 2998; > 100 µM (inactive) in the assay on SK-MEL-2; 29 µM (inactive) in the assay on COLO 205; > 100 µM (inactive) with MDA-N; 84.5 µM (inactive) in the assay with M14; 67.1 µM (inactive) in the assay on A498. For the same compound, the GI50 in the assay on NCI-H23 is > 100 µM (inactive); in the assay on MOLT-4, 29.3 µM (inactive); in the assay with NCI/ADR-RES it was 52 µM (inactive); in the assay on UACC-257 it was 78.9 µM (inactive); in the assay on PC-3 it was > 100 µM (inactive); in the assay on Malme-3M, > 100 µM (inactive). Besides, the GI50 with UACC-62 is > 100 µM (inactive); in the assay on 786-0, 33.3 µM (inactive); with HOP-62 it was > 100 µM (inactive); with HCT-15, 59 µM; in the assay with SF-539 it was 25.1 µM (inactive); in the assay on TK-10, > 100 µM (inactive). Besides, the GI50 in the assay with SF-268 was > 100 µM (inactive).
Turning to `CN(C)c1ccc([S+]([O-])Nc2ccccc2)cc1` (centres undefined), the GI50 was 34.6 µM (inactive) in the assay on HCC 2998; 0.52 µM (active) in the assay with BT-549; 35.8 µM (inactive) with SK-MEL-2; 24.6 µM (inactive) with COLO 205; 38.5 µM (inactive) in the assay on M14; 45.7 µM (inactive) in the assay with NCI-H23. For the same compound, the GI50 with MOLT-4 was 53.8 µM (inactive); with NCI/ADR-RES it was 22.1 µM (inactive); with UACC-257, 27.3 µM (inactive); in the assay with Malme-3M, 49.8 µM (inactive); in the assay on UACC-62 it was 22.5 µM (inactive); with 786-0 it was 35.4 µM (inactive). For the same compound, the GI50 is 56 µM (inactive) in the assay with HOP-62; 11.6 µM in the assay on HCT-15; > 100 µM (inactive) in the assay on SF-539; > 100 µM (inactive) in the assay with TK-10; 45.6 µM (inactive) in the assay on SF-268.
As to `COC(=O)C(NC(=O)CSc1nnc(COc2ccc(Cl)cc2)n1-c1ccccc1)C(C)C` (centres undefined), the GI50 in the assay on HCC 2998 was 18.6 µM (inactive); in the assay on SK-MEL-2 it was 18.7 µM (inactive); with COLO 205, 23.4 µM (inactive); in the assay on MDA-N, 16.2 µM (inactive); in the assay with M14 it was 21.9 µM (inactive); in the assay on A498, 21.2 µM (inactive). For the same compound, the GI50 in the assay with NCI-H23 is 25.4 µM (inactive); in the assay with MOLT-4, 21.6 µM (inactive); in the assay with NCI/ADR-RES it was 22.6 µM (inactive); with UACC-257 it was 17.7 µM (inactive); in the assay with PC-3, 21.7 µM (inactive); in the assay on Malme-3M, 16.5 µM (inactive). The GI50 was 17.8 µM (inactive) with UACC-62; 18.1 µM (inactive) with 786-0; 18.6 µM (inactive) with HOP-62; 36.7 µM with HCT-15; 31.2 µM (inactive) in the assay on SF-539; 15.6 µM (inactive) in the assay on TK-10. The GI50 with SF-268 is 20.7 µM (inactive).
Take `CC12CCCC(O)C1CCC1=CC3(CCC12)SCCS3` (centres undefined): the GI50 with HCC 2998, in the assay with BT-549, in the assay on COLO 205, with MDA-N, with M14 and with NCI-H23 was > 10 µM (inactive) throughout. The GI50 in the assay on NCI/ADR-RES, with UACC-257, in the assay on PC-3, with Malme-3M, in the assay with UACC-62 and in the assay on 786-0 was > 10 µM (inactive) each time. For the same compound, the GI50 was > 10 µM (inactive) in the assay with HOP-62, above 10 µM in the assay on HCT-15, > 10 µM (inactive) in the assay on TK-10 and > 10 µM (inactive) in the assay on SF-268.
Consider `C1CSCCSS[C@@H]2CCCCC2SC1` (some centres undefined), for which the GI50 with HCC 2998, in the assay with BT-549, in the assay with COLO 205, in the assay with MDA-N, in the assay on M14 and with NCI-H23 was > 100 µM (inactive) throughout. In addition, the GI50 in the assay on MOLT-4, with NCI/ADR-RES, in the assay on UACC-257, in the assay with PC-3, with UACC-62 and with 786-0 was > 100 µM (inactive) throughout. The GI50 with HOP-62 is > 100 µM (inactive); in the assay on HCT-15, above 100 µM; with SF-539, > 100 µM (inactive); in the assay on TK-10, > 100 µM (inactive); in the assay on SF-268 it was > 100 µM (inactive).
With `O=C(NCc1ccc(Cl)cc1)c1cc2sccc2nc1C(F)(F)F`, the GI50 was 39.9 µM (inactive) in the assay with BT-549; 50 µM (inactive) in the assay on SK-MEL-2; > 100 µM (inactive) in the assay with COLO 205; > 100 µM (inactive) with MDA-N; > 100 µM (inactive) in the assay with M14; 45.5 µM (inactive) in the assay with NCI-H23. Besides, the GI50 is > 100 µM (inactive) with MOLT-4; 39.1 µM (inactive) in the assay on NCI/ADR-RES; 69 µM (inactive) in the assay on UACC-257; 48 µM (inactive) with PC-3; 42.3 µM (inactive) in the assay on Malme-3M; 35.2 µM (inactive) in the assay on UACC-62. The GI50 in the assay with 786-0 was 18.2 µM (inactive); with HOP-62, 22.3 µM (inactive); in the assay with SF-539 it was 27.7 µM (inactive); with TK-10, 33.7 µM (inactive); in the assay with SF-268 it was 24.2 µM (inactive).
`CN(C)CCCSc1nc2ccccc2[nH]1`: the GI50 with HCC 2998, with BT-549, in the assay with SK-MEL-2, with COLO 205, with MDA-N and with M14 was > 100 µM (inactive) in each case. Moreover, the GI50 with A498, in the assay with NCI-H23, in the assay with NCI/ADR-RES, with UACC-257, with Malme-3M and in the assay on UACC-62 was > 100 µM (inactive) in each case. Moreover, the GI50 in the assay with 786-0 is > 100 µM (inactive); in the assay with HOP-62 it was > 100 µM (inactive); with HCT-15 it was above 100 µM; with TK-10 it was > 100 µM (inactive); in the assay with SF-268, > 100 µM (inactive).
On to `O=CC1C(Cl)=Nc2nc3ccccc3n2C1c1ccccc1` (centres undefined), for which the GI50 in the assay on HCC 2998 was 18.2 µM (inactive); in the assay with BT-549, 15.2 µM (inactive); with SK-MEL-2, 12 µM (inactive); in the assay with COLO 205 it was 19.2 µM (inactive); with M14, 23.7 µM (inactive); with A498, 3.01 µM (inactive). Moreover, the GI50 in the assay on NCI-H23 was 23.4 µM (inactive); in the assay on NCI/ADR-RES, 24 µM (inactive); in the assay with UACC-257, 22.6 µM (inactive); in the assay on PC-3, 17.3 µM (inactive); in the assay on Malme-3M it was 23.9 µM (inactive); in the assay on UACC-62, 24.7 µM (inactive). Also, the GI50 is 15.6 µM (inactive) with 786-0; 18.1 µM (inactive) in the assay on HOP-62; 16.2 µM in the assay on HCT-15; 18.1 µM (inactive) with SF-539; 26.3 µM (inactive) in the assay with TK-10; 16.8 µM (inactive) in the assay with SF-268.
As for `CCN(CC)CCNC(=O)c1cc2cc(NC(=O)c3cc4cc(N)ccc4[nH]3)ccc2[nH]1`, the GI50 is 17.1 µM (inactive) in the assay on HCC 2998; 28.1 µM (inactive) in the assay with BT-549; 29.1 µM (inactive) in the assay with SK-MEL-2; 12.9 µM (inactive) in the assay on COLO 205; 33.9 µM (inactive) in the assay with MDA-N; 26.1 µM (inactive) with M14. Moreover, the GI50 was > 100 µM (inactive) in the assay on A498; 50.6 µM (inactive) with NCI-H23; 13.2 µM (inactive) in the assay on MOLT-4; > 100 µM (inactive) with NCI/ADR-RES; 51.1 µM (inactive) in the assay on UACC-257; 23.4 µM (inactive) in the assay with UACC-62. Also, the GI50 is 35.8 µM (inactive) in the assay with 786-0; 55 µM (inactive) in the assay with HOP-62; above 100 µM in the assay with HCT-15; 31.1 µM (inactive) with SF-539; > 100 µM (inactive) in the assay on TK-10; 31.4 µM (inactive) with SF-268.
As to `COc1ccc([C@@]23OC[C@@H]4[C@@H](OC[C@@H]42)c2cc(OC)c(OC)cc23)cc1OC`, the GI50 in the assay with HCC 2998, in the assay on BT-549, in the assay on SK-MEL-2, with COLO 205, in the assay with M14 and in the assay with A498 was > 100 µM (inactive) throughout. For the same compound, the GI50 with NCI-H23, with MOLT-4, in the assay with NCI/ADR-RES, with PC-3, in the assay on Malme-3M and with UACC-62 was > 100 µM (inactive) in each case. Moreover, the GI50 with 786-0 is > 100 µM (inactive); with HOP-62 it was > 100 µM (inactive); with HCT-15 it was above 100 µM; in the assay on SF-539 it was > 100 µM (inactive); with TK-10 it was > 100 µM (inactive).
Take `COc1cc(OCc2ccc3nc(-c4ccccc4)c(Cl)nc3c2)cc(OC)c1OC`: the GI50 is > 100 µM (inactive) with HCC 2998; 45.5 µM (inactive) in the assay with SK-MEL-2; > 100 µM (inactive) in the assay on COLO 205; > 100 µM (inactive) with MDA-N; > 100 µM (inactive) in the assay on M14; 32.5 µM (inactive) in the assay on A498. For the same compound, the GI50 with NCI-H23 was 40.3 µM (inactive); in the assay with MOLT-4, > 100 µM (inactive); with NCI/ADR-RES it was 58.1 µM (inactive); in the assay with UACC-257 it was > 100 µM (inactive); in the assay on PC-3 it was > 100 µM (inactive); in the assay with Malme-3M, 26.3 µM (inactive). Besides, the GI50 in the assay on UACC-62 is 83.2 µM (inactive); in the assay on 786-0, 29.4 µM (inactive); with HOP-62 it was 33.3 µM (inactive); with HCT-15, above 100 µM; in the assay with SF-539 it was 31.2 µM (inactive); in the assay on TK-10, 19.4 µM (inactive). The GI50 in the assay with SF-268 was > 100 µM (inactive).
